Data reported in patent US9833497B2, “Human originated EGF domain proteins and use of the same” (CHENGDU SOURCEBIO LIMITED-LIABILITY COMPANY, priority 2013, dated 2017).

Experiments:
Format in all cases: cell-based
[1] = system: E. coli DH5α; assay: Antibacterial activity: MIC and growth curve against E. coli DH5α in 96-well plate; settings: minimal inhibitory concentration against E. coli DH5α; 96-well plate, 5×10^5 CFU/mL, 37° C., judged after 8 h
Procedure, shortened: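 Log-phase bacteria (OD600 ~0.5) resuspended in LB at 5×10^5 CFU/mL, exposed to recombinant protein at 50, 25, 12.5 μg/mL final in triplicate, 37 °C shaking at 175 rpm. OD600 read every 30 min; MIC is lowest concentration showing no growth.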

[2] = system: E. coli BL21; assay: MIC against Gram-negative bacteria: E. coli BL21; settings: for MIC (μg/mL) E. coli BL21 / MIC E. coli BL21: 96-well plate, 37° C., 10 h
Procedure, shortened: (§1)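 Bacteria grown in LB at 37° C with shaking to McFarland 0.5, pelleted and resuspended in fresh LB, then seeded at 5×10^5 CFU/mL per well. Purified recombinant human EGF domain proteins were two-fold serially diluted in triplicate and plates shaken at 37° C, 175 rpm. MIC is the lowest protein concentration with no bacterial growth.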

[3] = system: Pseudomonas aeruginosa; assay: MIC against Gram-negative bacteria: Pseudomonas aeruginosa; settings: for MIC (μg/mL) P. aeruginosa / MIC P. aeruginosa: 96-well plate, 37° C., 10 h
Procedure, shortened: as §1

[4] = system: Klebsiella pneumonia; assay: MIC against Gram-negative bacteria: Klebsiella pneumonia; settings: for MIC (μg/mL) K. pneumonia / MIC K. pneumonia: 96-well plate, 37° C., 10 h
Procedure, shortened: as §1

[5] = system: Enterobacter cloacae; assay: MIC against Gram-negative bacteria: Enterobacter cloacae; settings: for MIC (μg/mL) E. cloacae / MIC E. cloacae: 96-well plate, 37° C., 10 h
Procedure, shortened: as §1

[6] = system: Aeromonas hydrophila; assay: MIC against Gram-negative bacteria: Aeromonas hydrophila; settings: for MIC (μg/mL) A. hydrophila / MIC A. hydrophila: 96-well plate, 37° C., 10 h
Procedure, shortened: as §1

[7] = system: Citrobacter diversus; assay: MIC against Gram-negative bacteria: Citrobacter diversus; settings: for MIC (μg/mL) C. diversus / MIC C. diversus: 96-well plate, 37° C., 10 h
Procedure, shortened: as §1

[8] = system: Moraxella catarrhalis; assay: MIC against Gram-negative bacteria: Moraxella catarrhalis; settings: for MIC (μg/mL) M. catarrhalis / MIC M. catarrhalis: 96-well plate, 37° C., 10 h
Procedure, shortened: as §1

[9] = system: Proteus mirabilis; assay: MIC against Gram-negative bacteria: Proteus mirabilis; settings: for MIC (μg/mL) P. mirabilis / MIC P. mirabilis: 96-well plate, 37° C., 10 h
Procedure, shortened: as §1

[10] = system: Proteus vulgaris; assay: MIC against Gram-negative bacteria: Proteus vulgaris; settings: for MIC (μg/mL) P. vulgaris / MIC P. vulgaris: 96-well plate, 37° C., 10 h
Procedure, shortened: as §1

[11] = system: Serratia marcescens; assay: MIC against Gram-negative bacteria: Serratia marcescens; settings: for MIC (μg/mL) S. marcescens / MIC S. marcescens: 96-well plate, 37° C., 10 h
Procedure, shortened: as §1

[12] = Pseudomonas aeruginosa, 5×10^5 CFU/mL
[13] = Klebsiella pneumonia, 5×10^5 CFU/mL
[14] = Enterobacter cloacae, 5×10^5 CFU/mL
[15] = Aeromonas hydrophila, 5×10^5 CFU/mL
[16] = Citrobacter diversus, 5×10^5 CFU/mL
[17] = Moraxella catarrhalis, 5×10^5 CFU/mL
[18] = Proteus mirabilis, 5×10^5 CFU/mL
[19] = Proteus vulgaris, 5×10^5 CFU/mL
[20] = Serratia marcescens, 5×10^5 CFU/mL

Substance	MIC [1]	MIC (μg/mL) E. coli BL21 ([2]; E. coli BL21, 5×10^5 CFU/mL)	MIC (μg/mL) P. aeruginosa [3, 12]	MIC (μg/mL) K. pneumonia [4, 13]	MIC (μg/mL) E. cloacae [5, 14]	MIC (μg/mL) A. hydrophila [6, 15]	MIC (μg/mL) C. diversus [7, 16]	MIC (μg/mL) M. catarrhalis [8, 17]	MIC (μg/mL) P. mirabilis [9, 18]	MIC (μg/mL) P. vulgaris [10, 19]	MIC (μg/mL) S. marcescens [11, 20]	MIC E. coli BL21 ([2]; 5×10^5 CFU/mL)	MIC P. aeruginosa ([3]; 5×10^5 CFU/mL)	MIC K. pneumonia ([4]; 5×10^5 CFU/mL)	MIC E. cloacae ([5]; 5×10^5 CFU/mL)	MIC A. hydrophila ([6]; 5×10^5 CFU/mL)	MIC C. diversus ([7]; 5×10^5 CFU/mL)	MIC M. catarrhalis ([8]; 5×10^5 CFU/mL)	MIC P. mirabilis ([9]; 5×10^5 CFU/mL)	MIC P. vulgaris ([10]; 5×10^5 CFU/mL)	other results
PRT87 (DACLLNPCQNQGSCRHLPGAPHGYTCDCVGGYFGHHCE; listed as Homo sapiens)	12.5 µg/mL	12.5 µg/mL	12.5 µg/mL	50 µg/mL	12.5 µg/mL	25 µg/mL	50 µg/mL	25 µg/mL	12.5 µg/mL	25 µg/mL	50 µg/mL										
PRT928 (NIDNCDPDPCHHGQCQDGIDSYTCICNPGYMGAICS; listed as Homo sapiens)	25 µg/mL																				MIC ([2]; E. coli BL21, 10 h cultivation at 37° C.): 12.5 µg/mL; MIC ([3]; P. aeruginosa, 10 h cultivation at 37° C.): 25 µg/mL; MIC ([4]; K. pneumonia, 10 h cultivation at 37° C.): 12.5 µg/mL; MIC ([5]; E. cloacae, 10 h cultivation at 37° C.): 25 µg/mL; MIC ([6]; A. hydrophila, 10 h cultivation at 37° C.): 12.5 µg/mL; MIC ([7]; C. diversus, 10 h cultivation at 37° C.): 25 µg/mL; MIC ([8]; M. catarrhalis, 10 h cultivation at 37° C.): 12.5 µg/mL; MIC ([9]; P. mirabilis, 10 h cultivation at 37° C.): 12.5 µg/mL; MIC ([10]; P. vulgaris, 10 h cultivation at 37° C.): 25 µg/mL; MIC ([11]; S. marcescens, 10 h cultivation at 37° C.): 25 µg/mL
PRT1440 (DKDECSKDNGGCQHECVNTMGSYMCQCRNGFVLHDNKHDCK; listed as Homo sapiens)	12.5 µg/mL																				MIC against E. coli BL21 ([2]; E. coli BL21, 5×10^5 CFU/mL, 10 h cultivation at 37° C.): 25 µg/mL; MIC against P. aeruginosa ([3]; Pseudomonas aeruginosa, 5×10^5 CFU/mL, 10 h cultivation at 37° C.): 12.5 µg/mL; MIC against K. pneumonia ([4]; Klebsiella pneumonia, 5×10^5 CFU/mL, 10 h cultivation at 37° C.): 25 µg/mL; MIC against E. cloacae ([5]; Enterobacter cloacae, 5×10^5 CFU/mL, 10 h cultivation at 37° C.): 12.5 µg/mL; MIC against A. hydrophila ([6]; Aeromonas hydrophila, 5×10^5 CFU/mL, 10 h cultivation at 37° C.): 25 µg/mL; MIC against C. diversus ([7]; Citrobacter diversus, 5×10^5 CFU/mL, 10 h cultivation at 37° C.): 25 µg/mL; MIC against M. catarrhalis ([8]; Moraxella catarrhalis, 5×10^5 CFU/mL, 10 h cultivation at 37° C.): 12.5 µg/mL; MIC against P. mirabilis ([9]; Proteus mirabilis, 5×10^5 CFU/mL, 10 h cultivation at 37° C.): 25 µg/mL; MIC against P. vulgaris ([10]; Proteus vulgaris, 5×10^5 CFU/mL, 10 h cultivation at 37° C.): 12.5 µg/mL; MIC against S. marcescens ([11]; Serratia marcescens, 5×10^5 CFU/mL, 10 h cultivation at 37° C.): 25 µg/mL
PRT717 (DLNECLVFGTCSHQCINVEGSYKCVCDQNFQERNNTCI; listed as Homo sapiens)	50 µg/mL											12.5 µg/mL	50 µg/mL	12.5 µg/mL	50 µg/mL	12.5 µg/mL	25 µg/mL	50 µg/mL	25 µg/mL	12.5 µg/mL	MIC S. marcescens ([11]; 5×10^5 CFU/mL): 50 µg/mL
PRT697 (DVDECAQEPPPCGPGRCDNTAGSFHCACPAGFRSRGPGAPCQ; listed as Homo sapiens)	25 µg/mL											25 µg/mL	50 µg/mL	12.5 µg/mL	50 µg/mL	25 µg/mL	12.5 µg/mL	50 µg/mL	12.5 µg/mL	25 µg/mL	MIC S. marcescens ([11]; 5×10^5 CFU/mL): 25 µg/mL
PRT63 (GCNFNNGGCHQDCFEGGDGSFLCGCRPGFRLLDDLVTCA; listed as Homo sapiens)	12.5 µg/mL	25 µg/mL	12.5 µg/mL	25 µg/mL	12.5 µg/mL	25 µg/mL	12.5 µg/mL	25 µg/mL	12.5 µg/mL	25 µg/mL	12.5 µg/mL										
